From patent publication US20260076959A1, “COMBINATION PRODUCT, SALT, AND USE THEREOF IN TREATING NEURODEGENERATIVE DISEASES OR DISORDERS” (SHANGHAI HENLIUS BIOTECH, INC., priority 2023, published 2026)
Counter-ions that a name gives are not always drawn.

Legend:
ALS = details: in vivo; cited from earlier work
CD4-positive T cells = assay: Proliferation of CD4-positive T cells from anti-CD3/CD28-stimulated PBMCs (CellTrace, flow cytometry); type: cell-based, human; details: 72 h; for proliferation of CD4-positive T cells compared to control group (DMSO): 100 μM (Y+T: 100 μM+100 μM)
Description: (§1) It has been reported that in ALS, Th cells are described as major players in inflammation and disease progression. […] Similarly, CD8 T cell infiltration was also observed in the spinal cord and brain of ALS patients. (Elise Liu, et al., Neuroinflammation in Amyotrophic Lateral Sclerosis and Frontotemporal Dementia and the Interest of Induced Pluripotent Stem Cells to Study Immune Cells Interactions With Neurons, Front Mol Neurosci. 2021 Dec. 14; 14:767041. doi: 10.3389/fnmol.2021.767041.) To observe the inhibitory effects of the compounds, the compound combination, or the salt of the present disclosure on immune cell infiltration or proliferation, their effects in inhibiting the proliferation of CD4-positive and CD8-positive T cells were further analyzed. First, a certain amount of human peripheral blood mononuclear cells (PBMCs) were incubated with 5 μM CellTrace cell proliferation assay reagent in an incubator at 37° C. with 5% CO2 in the dark for 20 min. Then, 1.5×10^5 CellTrace-stained PBMCs were seeded in a 96-well U-bottom plate and treated with Anti-CD3/CD28 antibody-coupled magnetic beads at a ratio of 1:1 (cell count:magnetic bead count) to induce differentiation into T cells. Subsequently, various compounds at corresponding concentrations (compound Y: 100 μM; compound T: 100 μM; compound combination Y+T: 100 µM compound Y+100 μM compound T; YT salt: 100 μM; control group: […] (100 μM)) were co-incubated with the above-treated cells in the incubator at 37° C. with 5% CO2 for 72 h, followed by analysis by a flow cytometer. Specifically, the test cells were first treated with a Live/dead dye (633 nm, 1:1000 dilution) at 4° C. for 30 min to distinguish dead cells from live cells. […] After appropriate washing, the above-stained cells were analyzed by a flow cytometer at different wavelengths. […] Proliferation of CD4-positive and CD8-positive T cells was determined by the fluorescence of CellTrace dye.

[1] = test system: 6-OHDA-induced Parkinson's disease rats; assay: 6-OHDA-induced Parkinson's disease rat model (grid walking test); type: in vivo, SD rats; details: 248 mg/kg intragastrically once daily, 6 weeks; P<0.05 vs model
Experimental: Forty-eight male SD rats were selected and divided into 4 groups (12 rats/group), namely a sham surgery group (normal control), a model group (model control), an istradefylline group (istradefylline, as a positive drug control, 10 mg/kg), and a YT salt treatment group (248 mg/kg). The Parkinson's disease model was established by injecting […] of 6-OHDA into the right intracranial medial forebrain bundle (MFB) of rats. After modeling, istradefylline and the YT salt were administered intragastrically once daily for 6 consecutive weeks, and a grid walking test was performed at the end of the 6-week administration period to evaluate the disease progression in the rats.

SH-sy5y cells = assay: Cell viability of hydrogen peroxide-induced SH-sy5y cells (CellTiter-Glo luminescence); type: cell-based
Experimental: Neuroblastoma SH-sy5y cells (purchased from the Cell Bank of the Chinese Academy of Sciences) were cultured in a complete medium (DMEM+10% FBS+1% PS) in a cell incubator at 37° C. with 5% CO2. The experiment was divided into 11 groups in total: • Group 1 (control): SH-sy5y cells • Group 2 (model): SH-sy5y cells+hydrogen peroxide • Group 3: SH-sy5y cells+hydrogen peroxide+compound Y (100 μM) • Group 4: SH-sy5y cells+hydrogen peroxide+compound T (100 μM) • Group 5: SH-sy5y cells+hydrogen peroxide+compound B (100 μM) • Group 6: SH-sy5y cells+hydrogen peroxide+compound N (100 μM) • Group 7: SH-sy5y cells+hydrogen peroxide+compound combination Y+T (100 μM+100 μM) • Group 8: SH-sy5y cells+hydrogen peroxide+compound combination B+N (100 μM+100 μM) • Group 9: SH-sy5y cells+hydrogen peroxide+compound combination PB+T (500 μM+200 μM) • Group 10: SH-sy5y cells+hydrogen peroxide+YT salt (100 μM) • Group 11: SH-sy5y cells+DMSO
Neuroblastoma SH-sy5y cells were plated at 1×10^4 cells/well in a complete medium (DMEM+10% FBS+1% PS) and cultured in a cell incubator at 37° C. with 5% CO2 for 24 h, followed by the addition of the corresponding compounds. After 24 h of incubation, hydrogen peroxide was added to stimulate the cells for 1 h, with the final concentration of hydrogen peroxide being 350 µM. Subsequently, […] CellTiter-Glo® (CTG) reagent was added, and the mixture was shaken for 2 min. Then, the luminescence signal values were measured, which could characterize the cell viability. […] Pharmacology/toxicologyNDAreviewandevaluation, Application number: 2166600Orig1s000, Food and Drug Administration. doi: pink.pharmaintelligence.informa.com/-/media/supporting-documents/pink-sheet/2022/11/relyvrio_nonclinical.pdf?rev=d27109bf35c040d4a78f73144d132917&hash=414BB5B4473A21ECE0231375EB1C0341).

CD8-positive T cells = assay: Proliferation of CD8-positive T cells from anti-CD3/CD28-stimulated PBMCs (CellTrace, flow cytometry); type: cell-based, human; details: 72 h; for proliferation of CD8-positive T cells compared to control group (DMSO): 100 μM (Y+T: 100 μM+100 μM)
Description: as §1

[2] = test system: MPTP-induced Parkinson's disease mouse model; assay: MPTP-induced Parkinson's disease mouse model (grip strength, rotarod, TH immunohistochemistry); type: in vivo, C57BL/6 mice; details: for reduction in TH-positive cells in the substantia nigra region: P<0.0001
Experimental: Sixty male C57BL/6 mice were selected and randomly divided into 5 groups (12 mice/group), namely a sham surgery group (normal control), a model group (model control), an L-DOPA group (positive drug control, 40 mg/kg), a low-dose YT salt treatment group (167.5 mg/kg), and a high-dose YT salt treatment group (248 mg/kg). The mice were intraperitoneally injected with MPTP at a dose of 30 mg/kg for 5 consecutive days for modeling. The YT salt was intragastrically administered twice daily (with an interval of 7-8 h between two administrations) for 13 consecutive days. L-DOPA was administered twice daily (with an interval of 7-8 h between two administrations) for 8 consecutive days. The amelioration effect of the YT salt on the motor function of the MPTP-induced Parkinson's disease mice was evaluated by behavioral indicators such as a grip strength test and a rotarod test. Histopathological examination was performed on the animals to evaluate the protective effect of the YT salt on dopaminergic neurons in the MPTP-induced Parkinson's disease mice.

[3] = test system: SOD1G93A mutant ALS model mice; assay: Onset of disease, severe conditions and survival in SOD1G93A ALS mouse model; type: in vivo
Experimental: The therapeutic effect of the YT salt on the survival status of ALS animals was evaluated in SOD1^G93A transgenic mice (B6SJL-Tg (SOD1*G93A) 1/cyagen). Sixteen female and fourteen male B6SJL-Tg(SOD1*G93A) 1/cyagen mice were selected and randomly divided into 2 groups (7 males+8 females/group) according to sex and body weight, namely a model group (control) and a YT salt group (treatment group). The YT salt was intragastrically administered at a dose of 496 mg/kg once daily. The administration began on day 66 of mouse age. Body weight changes were monitored, animal status and symptom severity were evaluated, and individual survival periods were recorded. Statistics on the severity of animal symptoms included the time to the first onset of disease and the time to the first observation of severe conditions in the animals. […] In this study, “severe condition” was defined as a state in which the animal was completely paralyzed and unable to move freely, but still alive; if the animal died directly without going through a “paralysis” stage after the onset of disease, the death was considered the occurrence of a severe condition. The survival period was statistically defined as the survival time of the animal at the endpoint of the test (day 130). The hazard ratio was calculated using the Log-rank test method.

[4] = 496 mg/kg intragastrically once daily

Structure (SMILES): CC1=NN(c2ccccc2)C(=O)C1 [Evadarone]
- revised ALS functional rating scale (ALSFRS-R) score (ALS): improves

Structure (SMILES): COc1cc2cc3[n+](cc2cc1OC)CCc1cc2c(cc1-3)OCO2 [YT salt]
- proliferation of CD4-positive T cells compared to control group (DMSO) (CD4-positive T cells): significantly inhibited
- inhibitory effect on proliferation of CD4-positive T cells compared to compound T and compound U (UDCA) (CD4-positive T cells; 100 μM): significantly superior
- foot fault rate in grid walking test [1]: significant reduction
- number of foot faults in grid walking test [1]: significant reduction
- effects in improving cell viability compared to compound T, compound B, combination B+N and combination PB+T (SH-sy5y cells; Y+T 100 μM+100 μM, YT salt 100 μM, hydrogen peroxide-induced): significantly superior effects in improving cell viability
- proliferation of CD8-positive T cells compared to control group (DMSO) (CD8-positive T cells): significantly inhibited
- inhibitory effect on proliferation of CD8-positive T cells compared to compound T and compound U (UDCA) (CD8-positive T cells; 100 μM): significantly superior
- apoptosis of dopaminergic neurons in the substantia nigra region and striatal region ([2]; YT salt 167.5 mg/kg twice daily): significantly inhibit
- MPTP-induced decrease in animal grip strength ([2]; YT salt high dose 248 mg/kg intragastrically twice daily, 13 days, P<0.01 vs model): significantly ameliorate
- reduction in TH-positive cells in the substantia nigra region ([2]; YT salt high dose 248 mg/kg twice daily): significant inhibition
- loss of TH-positive neurons (TH immunohistochemical staining in the striatum) ([2]; YT salt high dose 248 mg/kg twice daily, P<0.01): significant inhibition
- MPTP-induced reduction in time on the rod (rotarod test) ([2]; YT salt high dose 248 mg/kg twice daily, P<0.05 vs model): significant amelioration effect
- reduction in TH-positive cells in the substantia nigra region ([2]; YT salt low dose 167.5 mg/kg twice daily): significant inhibition
- median onset time [3, 4]: 109 days
- median time to severe condition occurrence [3, 4]: 117 days
- onset time (earliest onset in group) [3, 4]: > 90 days of mouse age
- time of first onset vs model group (Log-rank) ([3]; 496 mg/kg intragastrically once daily from day 66 of age, P=0.0802): no statistical difference
- hazard ratio for disease onset ([3]; 496 mg/kg intragastrically once daily, Log-rank): 0.5716
- survival period vs model group ([3]; 496 mg/kg intragastrically once daily, P<0.01): significantly superior
- incidence of severe conditions vs model group ([3]; 496 mg/kg intragastrically once daily, P<0.05): significantly lower
- median onset time longer than in the model group ([3]; 496 mg/kg intragastrically once daily, model group 102 days): 7 days
- death hazard ratio ([3]; 496 mg/kg, Log-rank): 0.3212
- hazard ratio for severe conditions ([3]; 496 mg/kg, Log-rank): 0.45
- endpoint survival rate ([3]; 496 mg/kg, endpoint day 130): 53.333%
- median survival period ([3]; 496 mg/kg, endpoint day 130): the number of dead individuals had not exceeded half by the endpoint of the test
- endpoint severe condition rate ([3]; 496 mg/kg, endpoint of the test day 130): 66.667%
- hazard ratio for disease onset, times lower than model group ([3]; 496 mg/kg, model group 1.749): about 3 times
- hazard ratio for severe conditions, times lower than model group ([3]; 496 mg/kg, model group 2.222): about 5 times
- death hazard ratio, times lower than model group ([3]; 496 mg/kg, model group 3.113): ~10 times
- median time to severe condition occurrence longer than in the model control group ([3]; 496 mg/kg, model group 109 days): about 8 days

Structure (SMILES): COc1cc2cc3[n+](cc2cc1OC)CCc1cc2c(cc1-3)OCO2.[Cl-] [compound Y]
- proliferation of CD4-positive T cells compared to control group (DMSO) (CD4-positive T cells): significantly inhibited
- effect in improving cell viability compared to compound B monotherapy (SH-sy5y cells; 100 μM each, hydrogen peroxide-induced): superior
- effect in improving cell viability compared to the model (SH-sy5y cells; 100 μM, 24 h incubation, then hydrogen peroxide 1 h, P<0.0001 vs model): excellent effect in improving cell viability
- proliferation of CD8-positive T cells compared to control group (DMSO) (CD8-positive T cells): significantly inhibited

Structure (SMILES): N[C@@H](Cc1ccc(O)c(O)c1)C(=O)O [L-DOPA, reference compound]
- MPTP-induced decrease in animal grip strength ([2]; L-DOPA 40 mg/kg twice daily, 8 days, P<0.001 vs model): significantly ameliorate
- reduction in TH-positive cells in the substantia nigra region ([2]; L-DOPA 40 mg/kg twice daily): significant inhibition
